Legend:
Test in all cases: relative viability (nuclei count vs DMSO), 5 days (fraction); higher = more cells survive
CUDC-101 + Foretinib = compound: C#Cc1cccc(Nc2ncnc3cc(OC)c(OCCCCCCC(=O)NO)cc23)c1 [CUDC-101] + COc1cc2c(Oc3ccc(NC(=O)C4(C(=O)Nc5ccc(F)cc5)CC4)cc3F)ccnc2cc1OCCCN1CCOCC1 [Foretinib] (partner 0.25 µM)
Summary of the method: (§1)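 Relative viability equals treated-well nuclei counts divided by vehicle-well nuclei counts. Counts came from 4× images of lung cancer cell lines grown in 1536-well plates for 5 days after pin-tool dosing on the day after seeding. Dosing used one drug alone or a fixed anchor-drug dose plus five library-drug doses (not always all listed) in √10 steps, and values are medians of duplicate plates.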

NVP-TAE684 + Phenformin = compound: COc1cc(N2CCC(N3CCN(C)CC3)CC2)ccc1Nc1ncc(Cl)c(Nc2ccccc2S(=O)(=O)C(C)C)n1 [NVP-TAE684] + N=C(N)NC(=N)NCCc1ccccc1 [Phenformin] (partner 250 µM)
Summary of the method: as §1

CUDC-101 + Decitabine = compound: C#Cc1cccc(Nc2ncnc3cc(OC)c(OCCCCCCC(=O)NO)cc23)c1 [CUDC-101] + Nc1ncn([C@H]2C[C@H](O)[C@@H](CO)O2)c(=O)n1 [Decitabine] (partner 2 µM)
Summary of the method: as §1

CUDC-101 + Alpelisib = compound: C#Cc1cccc(Nc2ncnc3cc(OC)c(OCCCCCCC(=O)NO)cc23)c1 [CUDC-101] + Cc1nc(NC(=O)N2CCC[C@H]2C(N)=O)sc1-c1ccnc(C(C)(C)C(F)(F)F)c1 [Alpelisib] (partner 2 µM)
Summary of the method: as §1

Cell Line	relative viability (CUDC-101 + Foretinib; first compound 0.01 µM)	relative viability (CUDC-101 + Foretinib; first compound 0.03162 µM)	relative viability (CUDC-101 + Foretinib; first compound 0.1 µM)	relative viability (CUDC-101 + Foretinib; first compound 0.3162 µM)	relative viability (CUDC-101 + Foretinib; first compound 1 µM)	relative viability (NVP-TAE684 + Phenformin; first compound 0.2 µM)	relative viability (NVP-TAE684 + Phenformin; first compound 0.6325 µM)	relative viability (NVP-TAE684 + Phenformin; first compound 2 µM)	relative viability (CUDC-101 + Decitabine; first compound 0.01 µM)	relative viability (CUDC-101 + Decitabine; first compound 0.03162 µM)	relative viability (CUDC-101 + Decitabine; first compound 0.1 µM)	relative viability (CUDC-101 + Decitabine; first compound 0.3162 µM)	relative viability (CUDC-101 + Decitabine; first compound 1 µM)	relative viability (CUDC-101 + Alpelisib; first compound 0.01 µM)	relative viability (CUDC-101 + Alpelisib; first compound 0.03162 µM)	relative viability (CUDC-101 + Alpelisib; first compound 0.1 µM)	relative viability (CUDC-101 + Alpelisib; first compound 0.3162 µM)	relative viability (CUDC-101 + Alpelisib; first compound 1 µM)
PC-3 [JPC-3]	1.07	1	0.882	0.539	0.294	0.477	0.436	0.454	0.773	0.717	0.54	0.723	0.476	1.04	0.999	0.775	0.683	0.307
IA-LM	1.27	1.1	1.12	1.11	0.657									0.676	0.769	0.678	0.745	0.388
NCI-H520	0.961	0.746	0.804	0.752	0.509	0.553	0.451	0.242	0.49	0.622	0.478	0.513	0.318	1.09		0.791	0.706	0.373
A549	0.985	1	0.907	1.02	0.769	0.153	0.171	0.122	0.297	0.277	0.218	0.286	0.276	0.773	0.757	0.605	0.948	0.618
BEN	0.822	0.547	0.804	0.581	0.648	0.257	0.285	0.231	0.724	0.656	0.709	0.649	0.498	1.21	0.887	1.17	0.848	0.737
COR-L 105	0.941	0.987	0.951	0.793	0.527	0.457	0.259	0.211	0.67	0.752	0.622	0.723	0.351	1.17	0.848	0.88	0.829	0.52
NCI-H1734	0.968	0.775	0.863	0.898	0.451	0.332	0.338	0.255	0.514	0.487	0.497	0.471	0.389	0.754	0.654	0.773	0.813	0.596
LOU-NH91	0.862	0.634	0.552	0.589	0.584	0.631	0.601	0.531	0.804	0.706	0.76	0.807	0.711	0.652	0.533	0.509	0.574	0.482
NCI-H2405	1.09	0.991	1.08	1.16	1.04	0.395	0.417	0.312	0.853	0.705	0.776	0.762	0.643	0.952	0.574	0.87	1.22	0.603
HCC-15	1.09	0.993	0.966	1.09	0.933	0.495	0.396	0.238	0.579	0.628	0.655	0.621	0.443	0.875	0.888	0.909	0.909	0.763
HCC-44						0.263	0.141	0.0733	0.908	1.03	0.912	0.906	0.913	0.641	0.664	0.771	0.781	0.685
NCI-H1792						0.268	0.25	0.159	0.561	0.437	0.602	0.553	0.424	0.702	0.57	0.695	0.734	0.645
NCI-H2347	0.888	0.948	0.902	0.99	0.689	0.252	0.302	0.294	0.636	0.585	0.672	0.591	0.576	1.09	1.08	1.09	1.11	1.03
SW 900	0.761	0.629	0.738	0.885	0.716	0.592	0.474	0.385	0.428	0.405	0.426	0.397	0.33					
RERF-LC-KJ	0.884	0.889	0.791	0.812	0.644	0.394	0.334	0.257	0.648	0.724	0.711	0.588	0.469	0.795	0.835	0.828	0.835	0.742
NCI-H522						0.685	0.777	0.608	0.58	0.622	0.761	0.616	0.677					
NCI-H1666	0.958	0.979	1	1.06	0.932	0.564	0.505	0.501	0.769	0.734	0.693	0.752	0.61	0.958	0.949	1.05	0.974	0.498
LC-2-ad	0.863	0.947	0.904	0.899	0.52	0.574	0.5	0.456	0.872	0.774	0.829	0.717	0.621	0.896	0.908	0.844	0.73	0.433
NCI-H2023	0.759	0.672	0.836	0.764	0.615	0.449	0.415	0.19	0.222	0.248	0.188	0.212	0.193	0.552	0.581	0.564	0.663	0.565
SK-LU-1	0.885	0.793	0.891	0.771	0.662	0.577	0.413	0.303	0.671	0.646	0.677	0.729	0.609	1.18	1.05	1.11	0.812	0.505
